We go through five compounds from patent US20180141987A1, “Novel Synthetic Antimicrobial Peptides” (priority 2014, published 2018).

Converted amounts (≈) assume the structure as drawn. Where two headings read alike, the source gives them in different places. No end group written: not given here.

As a reminder, the viability is a per cent measure of how many cells are alive, often set against a control. Read a low viability as more harm to the cells.

One data set has as its system Neurospora crassa. The procedure: (§1) iii. In Vitro Antifungal Assays • In vitro antifungal assays were performed in RPMI-1640 medium by broth micro dilution according to the Clinical and Laboratory Standards Institute (CLSI, formerly NCCL) methods M27-A3 and M-38-A2. […] Amphotericin B was used as positive control.
The subject of the next data set is Candida albicans. As to the method: as §1
Another data set has as its system Aspergillus niger. The procedure: as §1
The next data set concerns Ustilago maydis. The procedure:
as §1

A further data set has as its system Cryptococcus. The procedure:
as §1

Another data set concerns Fusarium oxysoprum. The procedure:
as §1

For another data set, the system named is Escherichia coli. The experiment in a line: microbe, parasite or virus in culture. The class given is cell-based.
For the next data set, the system named is Salmonella enterica. The experiment in a line: Inhibitory activity against bacteria (MIC 90). The class given is cell-based.
Another data set concerns Staphylococcus aureus. The experiment in a line: microbe, parasite or virus in culture. The class given is cell-based.
The next data set deals with Pseudomonas aeruginosa. The data set can be described thus: microbe, parasite or virus in culture. In kind it is cell-based.
The test system of data set [1] is Candida albicans cells. The experiment in a line: ROS generation (DCFH-DA fluorescence). In kind it is cell-based. Particulars: peptides at their respective MICs, FIG. 6. As to the method: (§2) FIG. 6 depicts the membrane damage and reactive oxygen species (ROS) generation by the instant peptides (a) Untreated Control, (b) positive control (c) […] (known peptide sequence, not novel, not to be covered in the invention, was used only for comparison), (d)Seq IDNo. 2, (e) Seq IDNo. 3 and (f) Seq IDNo. 1, after incubation of peptides at their respective MICs with the Candida albicans cells. i. Membrane Damage and ROS Generation • The membrane damage and formation of ROS (Reactive oxygen species) are the antifungal mechanisms of a number of antimicrobial peptides. The membrane damage (middle panel) and ROS generation by the instant peptides (right panel) was monitored after incubation of peptides at their respective MICs with the Candida albicans cells as depicted in FIG. 6(a-f). A red fluorescence resulting from the membrane impermeable DNA binding dye propidium iodide was observed indicating the membrane damage in the cells due to action of peptides under study. A green fluorescence resulting from the oxidation of dye Dichloro-dihydro-fluorescein diacetate DCFH-DA (non-fluorescent molecule) into DCF 2',7'-dichlorofluorescein. (fluorescent molecule) was observed indicating the presence of ROS.

The subject of the next data set is Yeast-Hypha transition. The experiment in a line: Yeast-Hypha transition inhibition. The class given is cell-based. The conditions noted are these: at 4 μg/ml; Table 10 has no title. As to the method:
ii. Yeast-Hypha Transition Inhibition. • The peptides were also tested for the Yeast-Hypha transition inhibition. In many human and plant pathogenic fungi direct correlation between the ability of fungus to switch between yeast (Y) and hypha (H) forms and pathogenicity have been reported (Jacobsen et al., 2012; Thompson et al., 2011; Nadal et al., 2008).

Data set [2] deals with human and plant pathogens. The experiment in a line: In vitro antifungal assays, all cultures tested. The class given is cell-based. The conditions noted are these: human and plant pathogenic fungi. The procedure: as §1
The test system of data set [3] is Candida albicans cells. The data set can be described thus: Membrane damage (propidium iodide fluorescence). The class given is cell-based. The conditions noted are these: peptides at their respective MICs, FIG. 6. As to the method:
as §2

For the next data set, the system named is Hela cells. The data set can be described thus: MTT assay, cytotoxicity. The class given is cell-based, human. The conditions noted are these: concentration not given. The procedure: (§3) The cytolytic acivity of the present peptides was assessed by the MTT (3-(4,5-dimethylthiazol-2-yl)-2,5-diphenyltetrazolium bromide) assay against human cell lines (Hela cells). The cytotoxicity of on HeLa cells was assessed Approximately 10^4 cells per well were seeded in a 96-well plate and incubated for 12-16 h at 37° C.
(Formazan colour is commonly taken as a measure of viable cells.)

A short description of a further data set: MTT assay, cytotoxicity. The class given is cell-based, human. Particulars: human, HeLa cells, concentration not given. The procedure:
as §3

The test system of the next data set is human erythrocyte. The experiment in a line: Hemolytic activity, release of haemoglobin from erythrocyte suspensions in PBS. The class given is cell-based. Particulars: human erythrocytes. As to the method:
The toxicity of the present cationic, alpha-helical antimicrobial peptides on blood cells to determine their suitability for systemic application was performed. Lysis of erythrocyte membranes was determined by monitoring the release of haemoglobin from human erythrocyte suspensions in PBS, in relation to complete (100%) haemolysis. Table 13(a) provides the % hemolytic activity observed when a series of concentrations of the present peptides were brought in contact with erythrocytes. There was absence of any hemolytic activity upto concentrations in the range of 130 to 200 μg/mL. However at concentration above 250 μg/mL, a minimal level of hemolysis was observed.

In data set [4] the test system is Gram positive and Gram negative bacteria. The experiment in a line: Inhibitory activity against bacteria, all cultures. In kind it is cell-based.

For `C[C@@H]1[C@H](O)[C@@H](C)/C=C/C=C/C=C/C=C/C=C/C=C/C=C/[C@H](O[C@@H]2O[C@H](C)[C@@H](O)[C@H](N)[C@@H]2O)C[C@@H]2O[C@](O)(C[C@@H](O)C[C@@H](O)[C@H](O)CC[C@@H](O)C[C@@H](O)CC(=O)O[C@H]1C)C[C@H](O)[C@H]2C(=O)O` [Ampho B, Amphotericin B, reference compound], the “MIC 90” value in the data set with Neurospora crassa (Neurospora crassa, RPMI-1640) was 4 µg/mL (≈ 4.33 µM); in the data set with Candida albicans (Candida albicans, RPMI-1640) it was 4 µg/mL (≈ 4.33 µM); in the data set on Aspergillus niger (Aspergillus niger, RPMI-1640), 8 µg/mL (≈ 8.66 µM); with Ustilago maydis (Ustilago maydis, RPMI-1640), 4 µg/mL (≈ 4.33 µM); against Cryptococcus (Cryptococcus, RPMI-1640), 4 µg/mL (≈ 4.33 µM); against Fusarium oxysoprum (Fusarium oxysoprum, RPMI-1640), 8 µg/mL (≈ 8.66 µM).

For the compound `CC1(C)S[C@@H]2[C@H](NC(=O)[C@H](N)c3ccccc3)C(=O)N2[C@H]1C(=O)O` [Ampicillin, ampicillin, reference compound], the MIC 90 came out at 4 µg/mL (≈ 11.4 µM) in the data set with Escherichia coli (Escherichia coli, read-out: MIC 90); 4 µg/mL (≈ 11.4 µM) with Salmonella enterica (read-out: MIC 90); 2 µg/mL (≈ 5.72 µM) in the data set with Staphylococcus aureus (Staphylococcus aureus, read-out: MIC 90); 2 µg/mL (≈ 5.72 µM) in the data set with Pseudomonas aeruginosa (Pseudomonas aeruginosa, read-out: MIC 90).

In the case of “FKLRAKIKVRLRAKIKL [D4E1, reference compound]”, the ROS generation result in the data set with Candida albicans cells [1] was “higher”. The “MIC 90” value against Escherichia coli was 2 µg/mL; against Neurospora crassa it was 8 µg/mL; in the data set with Candida albicans it was 8 µg/mL; with Aspergillus niger, 16 µg/mL; against Ustilago maydis, 32 µg/mL; in the data set with Cryptococcus, 4 µg/mL. The “MIC 90” value came out at 16 µg/mL against Fusarium oxysoprum, 2 µg/mL in the data set with Staphylococcus aureus and 2 µg/mL against Pseudomonas aeruginosa. Moreover, the Y-H transition inhibition in the data set with Yeast-Hypha transition came to 95.2%. Also, in data set [2], the “Antifungal potency in words, all the cultures tested” value is given as “most potent”. The “Relative potency in membrane damage and ROS generation” value in the data set on Candida albicans cells [3] is “more potent”.

Consider FRLKFHLKF-NH2 [Seq Id No: 2], for which the “MIC 90” value in the data set on Escherichia coli is 2 µg/mL; in the data set on Salmonella enterica it was 2 µg/mL; against Neurospora crassa it was 8 µg/mL; in the data set on Candida albicans it was 8 µg/mL; in the data set on Aspergillus niger it was 16 µg/mL; against Ustilago maydis it was 16 µg/mL. For the same compound, the “MIC 90” value in the data set with Cryptococcus was 4 µg/mL; in the data set on Fusarium oxysoprum, 8 µg/mL; in the data set on Staphylococcus aureus it was 2 µg/mL; with Pseudomonas aeruginosa, 2 µg/mL. Besides, the “O.D. (Treated Cells)” value in the data set with Hela cells came to 1.0185. In “MTT assay, cytotoxicity”, this compound registered a viability of 100%. For the same compound, the results for the Hemolytic activity in the data set on human erythrocyte (256 μg/mL), in the data set with human erythrocyte (512 μg/mL) and with human erythrocyte (1024 μg/mL) were 2%, 3.2%^ and 7%, respectively.

For VLKKLKKLC-NH2 [Seq Id No: 3], the “MIC 90” value amounted to 2 µg/mL with Escherichia coli; 2 µg/mL in the data set with Salmonella enterica; 16 µg/mL with Neurospora crassa; 64 µg/mL with Candida albicans; 16 µg/mL against Aspergillus niger; 32 µg/mL against Ustilago maydis. Moreover, the “MIC 90” value came out at 16 µg/mL in the data set with Cryptococcus, 32 µg/mL against Fusarium oxysoprum, 4 µg/mL in the data set on Staphylococcus aureus and 4 µg/mL in the data set on Pseudomonas aeruginosa. Moreover, the “O.D. (Treated Cells)” value in the data set with Hela cells was 0.8325. Besides, the viability in “MTT assay, cytotoxicity” amounted to 88%. This compound yielded a Y-H transition inhibition in the data set with Yeast-Hypha transition of 87.5%. Also, the “Potency towards Gram positive versus Gram negative bacteria” value in [4] is reported as “higher potency towards Gram positive”. Also, the “Antifungal potency in words, all the cultures tested” value in data set [2] is listed as “moderate activity”. Also, the values for the Hemolytic activity in the data set with human erythrocyte (256 μg/mL), in the data set with human erythrocyte (512 μg/mL) and in the data set on human erythrocyte (1024 μg/mL) were 2%, 2.9% and 5.7%, respectively.
